Data taken from the NIST ThermoML archive (doi:10.1021/acs.jced.5b00606).

What was measured:
[1] = for vapor or sublimation pressure: Liquid, Transpiration method
[2] = Molar enthalpy of transition or fusion; conditions: Crystal; Drop ice or diphenyl ether calorimetry

c1cn2ccnc2cn1 [imidazo[1,2-a]pyrazine]
[1]
Conditions	vapor or sublimation pressure [kPa]
369.6 K	0.1641
373.8 K	0.2038
379 K	0.2643
383 K	0.34
385.2 K	0.373
388.2 K	0.4381
390.2 K	0.4952
393.4 K	0.5831

Conditions	Triple point temperature [K]
[1], Crystal, DTA	359.2

Conditions	Molar enthalpy of transition or fusion [kcal/mol]
[2]	3.66
